In ChEMBL document CHEMBL3045884, “Synthesis, characterization, anticancer, and antioxidant activity of some new thiazolidin-4-ones in MCF-7 cells” (Med Chem Res, 2013):
≈ marks a conversion by molar mass, not a printed value. Calls of active or inactive are those of the source. The rule behind the calls is not given here.

How the values were obtained:
MCF7 [1] = test: Anticancer activity against Homo sapiens (human) MCF-7 cells assessed as inhibition of cell survival after 24 hr by MTT assay; type: functional, cell-based; settings: MCF7, 24 h
MCF7 [2] = test: Anticancer activity against Homo sapiens (human) MCF-7 cells assessed as cell survival at 100 ug/ml after 24 hr by MTT assay (reference value: 100%); type: functional; settings: MCF7, 24 h, read-out: Survival
MCF7 [3] = test: Anticancer activity against Homo sapiens (human) MCF-7 cells assessed as cell survival at 10 ug/ml after 24 hr by MTT assay (reference value: 100%); type: functional; settings: MCF7, 24 h, read-out: Survival
MCF7 [4] = test: Anticancer activity against Homo sapiens (human) MCF-7 cells assessed as cell survival at 1 ug/ml after 24 hr by MTT assay (reference value: 100%); type: functional; settings: MCF7, 24 h, read-out: Survival
MCF7 [5] = test: Anticancer activity against Homo sapiens (human) MCF-7 cells assessed as cell survival at 0.1 ug/ml after 24 hr by MTT assay (reference value: 100%); type: functional; settings: MCF7, 24 h, read-out: Survival
[6] = Antioxidant activity assessed as ABTS radical scavenging activity after 20 min by ELISA plate reader analysis; type: functional
[7] = system: Radical scavenging activity; test: Antioxidant activity assessed as DPPH radical scavenging activity after 20 min by ELISA plate reader analysis; type: functional
MCF7 [8] = test: Induction of apoptotic DNA fragmentation in Homo sapiens (human) MCF-7 cells assessed as increase in olive tail moment after 24 hr by comet assay; type: functional, cell-based
MCF7 [9] = test: Induction of apoptotic DNA fragmentation in Homo sapiens (human) MCF7 cells assessed as increase in tail length after 24 hr by comet assay; type: functional, cell-based
MCF7 [10] = test: Induction of apoptotic DNA fragmentation in Homo sapiens (human) MCF-7 cells assessed as formation of comets at 50 ug/ml after 24 hr by comet assay; type: functional, cell-based
MCF7 [11] = test: Induction of apoptotic DNA fragmentation in Homo sapiens (human) MCF-7 cells assessed as increase in olive tail moment at 0.1 uM after 24 hr by comet assay; type: functional, cell-based
MCF7 [12] = test: Induction of apoptotic DNA fragmentation in Homo sapiens (human) MCF-7 cells assessed as increase in tail length at 0.1 uM after 24 hr by comet assay; type: functional, cell-based
MCF7 [13] = test: Induction of apoptotic DNA fragmentation in Homo sapiens (human) MCF-7 cells assessed as formation of comets at 54 ug/ml after 24 hr by comet assay; type: functional, cell-based

| SMILES | IC50 (MCF7 [1]) [µg/mL] | viability at 100 µg/mL (MCF7 [2]) [%] | viability at 10 µg/mL (MCF7 [3]) [%] | viability at 1 µg/mL (MCF7 [4]) [%] | viability at 0.1 µg/mL (MCF7 [5]) [%] | IC50 [6] [µg/mL] | IC50 [7] [µg/mL] | Activity (MCF7 [8]) | Activity (MCF7 [9]) | Activity (MCF7 [10]) | Activity (MCF7 [11]) | Activity (MCF7 [12]) | Activity (MCF7 [13]) |
| --- | --- | --- | --- | --- | --- | --- | --- | --- | --- | --- | --- | --- | --- |
| COc1ccc(-c2n[nH]cc2C2SCC(=O)N2n2c(S)nnc2COc2ccccc2)cc1 (stereo not given) | 85 (≈ 177 µM) | 46.5 | 96.8 | 100 | 100 | – | – | – | – | – | – | – | – |
| Cc1ccccc1OCc1nnc(S)n1N1C(=O)CSC1c1c[nH]nc1-c1ccc(Cl)cc1 (stereo not given) | 22 (≈ 44.1 µM) | 13.2 | 67.6 | 80.7 | 70 | 73.03 (≈ 146 µM) | 31.52 (≈ 63.2 µM) | Dose-dependent effect | Dose-dependent effect | Active | – | – | – |
| O=C1CSC(c2c[nH]nc2-c2ccc(Cl)cc2)N1n1c(S)nnc1COc1ccc2ccccc2c1 (stereo not given) | 100 (≈ 187 µM) | 50.7 | 81.4 | 100 | 99.7 | – | – | – | – | – | – | – | – |
| Cc1ccc(OCc2nnc(S)n2N2C(=O)CSC2c2c[nH]nc2-c2ccc(F)cc2)cc1 (stereo not given) | > 100 | 71.4 | 87.5 | 74.7 | 80.8 | – | – | – | – | – | – | – | – |
| COc1ccc(-c2n[nH]cc2C2SCC(=O)N2n2c(S)nnc2COc2ccccc2C)cc1 (stereo not given) | 29 (≈ 58.6 µM) | 25.4 | 84.7 | 87 | 81.5 | 165.78 (≈ 335 µM) | 46.95 (≈ 94.9 µM) | Dose-dependent effect | Dose-dependent effect | Active | – | – | – |
| O=C1CSC(c2c[nH]nc2-c2ccc(Cl)cc2)N1n1c(S)nnc1COc1cccc2ccccc12 (stereo not given) | 100 (≈ 187 µM) | 51.8 | 60.3 | 70.5 | 101 | – | – | – | – | – | – | – | – |
| COc1cccc2c1C(=O)c1c(O)c3c(c(O)c1C2=O)C[C@@](O)(C(=O)CO)C[C@@H]3O[C@H]1C[C@H](N)[C@H](O)[C@H](C)O1 | – | – | – | – | – | – | – | – | – | – | Active | Active | Active |
| O=C1CSC(c2c[nH]nc2-c2ccc(F)cc2)N1n1c(S)nnc1COc1ccccc1 (stereo not given) | 30 (≈ 64 µM) | 33.6 | 76.5 | 69.4 | 65.9 | 143.67 (≈ 307 µM) | 27.16 (≈ 58 µM) | Dose-dependent effect | Dose-dependent effect | Active | – | – | – |
| COc1ccc(-c2n[nH]cc2C2SCC(=O)N2n2c(S)nnc2COc2ccc(C)cc2)cc1 (stereo not given) | 78 (≈ 158 µM) | 43.7 | 90.2 | 95.4 | 95 | – | – | – | – | – | – | – | – |
| O=C1CSC(c2c[nH]nc2-c2ccc(F)cc2)N1n1c(S)nnc1COc1ccc2ccccc2c1 (stereo not given) | > 100 | 96.5 | 99.8 | 100 | 100 | – | – | – | – | – | – | – | – |
| Cc1ccccc1OCc1nnc(S)n1N1C(=O)CSC1c1c[nH]nc1-c1ccc(F)cc1 (stereo not given) | > 100 | 62.1 | 92.5 | 83.1 | 81.4 | – | – | – | – | – | – | – | – |
| O=C1O[C@H]([C@@H](O)CO)C(O)=C1O [ASCORBIC ACID] | – | – | – | – | – | 31.53 (≈ 179 µM) | 18.74 (≈ 106 µM) | – | – | – | – | – | – |
